Test results: ChEMBL document CHEMBL4507285, “Data for DCP probe MRL-SYKi” (2021)

How the values were obtained:
[1] = target: Tyrosine-protein kinase Blk (Homo sapiens) (UniProt P51451); conditions: Compound concentration 100.0 nM
[2] = target: Calcium/calmodulin-dependent protein kinase type 1G (Homo sapiens) (UniProt Q96NX5); conditions: Compound concentration 100.0 nM
[3] = target: Cyclin-dependent kinase 8 (Homo sapiens) (UniProt P49336); conditions: Compound concentration 100.0 nM
[4] = target: Cyclin-dependent kinase-like 5 (Homo sapiens) (UniProt O76039); conditions: Compound concentration 100.0 nM
[5] = target: Tyrosine-protein kinase CSK (Homo sapiens) (UniProt P41240); conditions: Compound concentration 100.0 nM
[6] = target: Casein kinase I isoform alpha (Homo sapiens) (UniProt P48729); conditions: Compound concentration 100.0 nM
[7] = target: Casein kinase I isoform delta (Homo sapiens) (UniProt P48730); conditions: Compound concentration 100.0 nM
[8] = target: Casein kinase I isoform gamma-2 (Homo sapiens) (UniProt P78368); conditions: Compound concentration 100.0 nM
[9] = target: Serine/threonine-protein kinase DCLK2 (Homo sapiens) (UniProt Q8N568); conditions: Compound concentration 100.0 nM
[10] = target: Ephrin type-A receptor 5 (Homo sapiens) (UniProt P54756); conditions: Compound concentration 100.0 nM
[11] = target: Mitogen-activated protein kinase 15 (Homo sapiens) (UniProt Q8TD08); conditions: Compound concentration 100.0 nM
[12] = tested on: Receptor-type tyrosine-protein kinase FLT3 (Homo sapiens), P36888 [UNDEFINED MUTATION]; conditions: Compound concentration 100.0 nM
[13] = target: Homeodomain-interacting protein kinase 4 (Homo sapiens) (UniProt Q8NE63); conditions: Compound concentration 100.0 nM
[14] = target: Inhibitor of nuclear factor kappa-B kinase subunit alpha (Homo sapiens) (UniProt O15111); conditions: Compound concentration 100.0 nM
[15] = target: Inhibitor of nuclear factor kappa-B kinase subunit epsilon (Homo sapiens) (UniProt Q14164); conditions: Compound concentration 100.0 nM
[16] = target: Mitogen-activated protein kinase 9 (Homo sapiens) (UniProt P45984); conditions: Compound concentration 100.0 nM
[17] = target: Mast/stem cell growth factor receptor Kit (Homo sapiens) (UniProt P10721); conditions: Compound concentration 100.0 nM
LIM domain kinase 1 = LIM domain kinase 1 (Homo sapiens, UniProt P53667); conditions: Compound concentration 100.0 nM
[18] = target: Leukocyte tyrosine kinase receptor (Homo sapiens) (UniProt P29376); conditions: Compound concentration 100.0 nM
[19] = target: MAP kinase-activated protein kinase 2 (Homo sapiens) (UniProt P49137); conditions: Compound concentration 100.0 nM
[20] = target: Dual specificity mitogen-activated protein kinase kinase 4 (Homo sapiens) (UniProt P45985); conditions: Compound concentration 100.0 nM
[21] = target: Dual specificity mitogen-activated protein kinase kinase 6 (Homo sapiens) (UniProt P52564); conditions: Compound concentration 100.0 nM
[22] = target: Myosin-IIIb (Homo sapiens) (UniProt Q8WXR4); conditions: Compound concentration 100.0 nM
[23] = target: Mitogen-activated protein kinase kinase kinase 14 (Homo sapiens) (UniProt Q99558); conditions: Compound concentration 100.0 nM
[24] = target: Mitogen-activated protein kinase 13 (Homo sapiens) (UniProt O15264); conditions: Compound concentration 100.0 nM
[25] = target: Serine/threonine-protein kinase pim-2 (Homo sapiens) (UniProt Q9P1W9); conditions: Compound concentration 100.0 nM
[26] = target: Serine/threonine-protein kinase PLK1 (Homo sapiens) (UniProt P53350); conditions: Compound concentration 100.0 nM
[27] = target: cGMP-dependent protein kinase 2 (Homo sapiens) (UniProt Q13237); conditions: Compound concentration 100.0 nM
[28] = tested on: Proto-oncogene tyrosine-protein kinase receptor Ret (Homo sapiens), P07949 [M918T]; conditions: Compound concentration 100.0 nM
[29] = tested on: Proto-oncogene tyrosine-protein kinase receptor Ret (Homo sapiens), P07949 [V804M]; conditions: Compound concentration 100.0 nM
[30] = target: Proto-oncogene tyrosine-protein kinase ROS (Homo sapiens) (UniProt P08922); conditions: Compound concentration 100.0 nM
[31] = target: Ribosomal protein S6 kinase alpha-5 (Homo sapiens) (UniProt O75582); conditions: Compound concentration 100.0 nM
[32] = target: Ribosomal protein S6 kinase alpha-6 (Homo sapiens) (UniProt Q9UK32); conditions: Compound concentration 100.0 nM
[33] = target: STE20-like serine/threonine-protein kinase (Homo sapiens) (UniProt Q9H2G2); conditions: Compound concentration 100.0 nM
[34] = target: Tyrosine-protein kinase receptor Tie-1 (Homo sapiens) (UniProt P35590); conditions: Compound concentration 100.0 nM
[35] = target: Serine/threonine-protein kinase tousled-like 2 (Homo sapiens) (UniProt Q86UE8); conditions: Compound concentration 100.0 nM
[36] = target: Non-receptor tyrosine-protein kinase TYK2 (Homo sapiens) (UniProt P29597); conditions: Compound concentration 100.0 nM
[37] = target: Serine/threonine-protein kinase WNK1 (Homo sapiens) (UniProt Q9H4A3); conditions: Compound concentration 100.0 nM
[38] = target: 5-hydroxytryptamine receptor 1D (Homo sapiens) (UniProt P28221); conditions: Compound concentration 10.0 uM
[39] = target: Mu-type opioid receptor (Homo sapiens) (UniProt P35372); conditions: Compound concentration 10.0 uM
[40] = target: Histamine H4 receptor (Homo sapiens) (UniProt Q9H3N8); conditions: Compound concentration 10.0 uM
[41] = target: Beta-2 adrenergic receptor (Homo sapiens) (UniProt P07550); conditions: Compound concentration 10.0 uM
[42] = target: Muscarinic acetylcholine receptor M2 (Homo sapiens) (UniProt P08172); conditions: Compound concentration 10.0 uM
[43] = target: Beta-3 adrenergic receptor (Homo sapiens) (UniProt P13945); conditions: Compound concentration 10.0 uM
[44] = target: Alpha-1D adrenergic receptor (Homo sapiens) (UniProt P25100); conditions: Compound concentration 10.0 uM

Inhibitor of nuclear factor kappa-B kinase subunit epsilon (Homo sapiens), sequence (Q14164 whole entry): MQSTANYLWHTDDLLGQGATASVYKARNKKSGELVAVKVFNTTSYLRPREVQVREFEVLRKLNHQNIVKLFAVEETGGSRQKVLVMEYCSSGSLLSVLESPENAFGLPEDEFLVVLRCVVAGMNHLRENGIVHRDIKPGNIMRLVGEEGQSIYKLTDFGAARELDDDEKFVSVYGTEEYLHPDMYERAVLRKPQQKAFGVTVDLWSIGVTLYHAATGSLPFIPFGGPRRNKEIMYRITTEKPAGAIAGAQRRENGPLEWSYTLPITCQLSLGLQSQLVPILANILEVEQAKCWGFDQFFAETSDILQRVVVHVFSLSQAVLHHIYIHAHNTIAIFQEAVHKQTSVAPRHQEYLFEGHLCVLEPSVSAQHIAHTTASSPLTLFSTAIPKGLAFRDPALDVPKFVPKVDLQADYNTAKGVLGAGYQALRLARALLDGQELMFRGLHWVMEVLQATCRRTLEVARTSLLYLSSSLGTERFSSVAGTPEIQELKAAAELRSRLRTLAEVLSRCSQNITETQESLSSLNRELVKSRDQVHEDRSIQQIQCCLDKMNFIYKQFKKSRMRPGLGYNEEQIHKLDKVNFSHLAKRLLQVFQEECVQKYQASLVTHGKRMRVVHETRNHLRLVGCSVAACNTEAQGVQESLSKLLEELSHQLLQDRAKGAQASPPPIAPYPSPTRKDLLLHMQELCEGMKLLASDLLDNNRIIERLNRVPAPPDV
Tyrosine-protein kinase Blk (Homo sapiens), sequence (P51451 2-505 limits assumed): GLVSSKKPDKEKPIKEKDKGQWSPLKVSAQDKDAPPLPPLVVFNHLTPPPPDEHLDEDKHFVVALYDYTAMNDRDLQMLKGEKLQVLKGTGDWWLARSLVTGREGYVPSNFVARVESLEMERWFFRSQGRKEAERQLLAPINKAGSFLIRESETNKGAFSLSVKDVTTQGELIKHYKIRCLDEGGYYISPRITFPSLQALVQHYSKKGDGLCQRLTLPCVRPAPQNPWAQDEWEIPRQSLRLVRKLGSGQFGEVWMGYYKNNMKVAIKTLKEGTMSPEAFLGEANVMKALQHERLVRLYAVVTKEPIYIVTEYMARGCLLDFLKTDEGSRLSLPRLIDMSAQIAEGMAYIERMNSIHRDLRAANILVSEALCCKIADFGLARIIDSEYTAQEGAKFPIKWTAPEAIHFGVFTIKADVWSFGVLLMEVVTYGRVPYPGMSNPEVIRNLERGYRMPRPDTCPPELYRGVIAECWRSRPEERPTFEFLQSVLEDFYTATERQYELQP
Ephrin type-A receptor 5 (Homo sapiens), sequence (P54756 whole entry): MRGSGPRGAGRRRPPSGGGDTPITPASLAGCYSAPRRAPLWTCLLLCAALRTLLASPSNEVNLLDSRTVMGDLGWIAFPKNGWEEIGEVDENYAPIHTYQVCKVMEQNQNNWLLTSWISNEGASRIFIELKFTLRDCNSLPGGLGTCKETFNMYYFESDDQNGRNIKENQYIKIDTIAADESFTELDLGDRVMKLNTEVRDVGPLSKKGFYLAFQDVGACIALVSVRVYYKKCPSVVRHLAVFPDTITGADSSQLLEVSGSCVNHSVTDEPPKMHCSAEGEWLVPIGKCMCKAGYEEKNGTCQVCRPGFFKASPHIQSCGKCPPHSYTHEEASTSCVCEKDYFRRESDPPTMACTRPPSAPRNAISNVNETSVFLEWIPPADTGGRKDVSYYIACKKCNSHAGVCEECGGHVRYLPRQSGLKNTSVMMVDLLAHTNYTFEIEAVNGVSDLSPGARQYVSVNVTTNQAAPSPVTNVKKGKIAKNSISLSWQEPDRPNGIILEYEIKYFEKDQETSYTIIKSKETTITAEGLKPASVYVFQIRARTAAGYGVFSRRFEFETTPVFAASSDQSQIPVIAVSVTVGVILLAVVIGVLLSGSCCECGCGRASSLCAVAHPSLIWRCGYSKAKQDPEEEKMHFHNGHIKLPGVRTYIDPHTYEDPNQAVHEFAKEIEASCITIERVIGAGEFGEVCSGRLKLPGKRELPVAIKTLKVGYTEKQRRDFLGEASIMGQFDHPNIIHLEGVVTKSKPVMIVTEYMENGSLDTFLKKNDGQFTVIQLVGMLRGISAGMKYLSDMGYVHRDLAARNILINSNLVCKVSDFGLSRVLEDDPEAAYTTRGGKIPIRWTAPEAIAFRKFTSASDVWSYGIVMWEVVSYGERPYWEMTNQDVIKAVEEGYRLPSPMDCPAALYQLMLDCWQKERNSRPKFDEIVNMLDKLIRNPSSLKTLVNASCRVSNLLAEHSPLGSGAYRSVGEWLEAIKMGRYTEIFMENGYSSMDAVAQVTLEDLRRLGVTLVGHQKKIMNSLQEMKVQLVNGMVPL
Casein kinase I isoform gamma-2 (Homo sapiens), sequence (P78368 whole entry, looked up, canonical isoform): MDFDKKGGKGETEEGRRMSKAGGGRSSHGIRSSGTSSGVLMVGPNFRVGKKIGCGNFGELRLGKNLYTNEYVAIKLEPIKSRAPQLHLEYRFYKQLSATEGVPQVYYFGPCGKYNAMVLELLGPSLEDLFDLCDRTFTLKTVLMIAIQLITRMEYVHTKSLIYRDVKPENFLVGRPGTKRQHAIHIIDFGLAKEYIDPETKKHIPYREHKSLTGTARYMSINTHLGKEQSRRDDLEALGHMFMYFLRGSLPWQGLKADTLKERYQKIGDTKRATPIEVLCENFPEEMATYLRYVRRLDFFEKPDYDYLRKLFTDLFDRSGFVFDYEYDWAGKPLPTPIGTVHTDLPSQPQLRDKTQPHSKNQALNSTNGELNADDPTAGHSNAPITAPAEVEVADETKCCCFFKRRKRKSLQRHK
LIM domain kinase 1, sequence (P53667 whole entry, looked up, the tested form may be a part): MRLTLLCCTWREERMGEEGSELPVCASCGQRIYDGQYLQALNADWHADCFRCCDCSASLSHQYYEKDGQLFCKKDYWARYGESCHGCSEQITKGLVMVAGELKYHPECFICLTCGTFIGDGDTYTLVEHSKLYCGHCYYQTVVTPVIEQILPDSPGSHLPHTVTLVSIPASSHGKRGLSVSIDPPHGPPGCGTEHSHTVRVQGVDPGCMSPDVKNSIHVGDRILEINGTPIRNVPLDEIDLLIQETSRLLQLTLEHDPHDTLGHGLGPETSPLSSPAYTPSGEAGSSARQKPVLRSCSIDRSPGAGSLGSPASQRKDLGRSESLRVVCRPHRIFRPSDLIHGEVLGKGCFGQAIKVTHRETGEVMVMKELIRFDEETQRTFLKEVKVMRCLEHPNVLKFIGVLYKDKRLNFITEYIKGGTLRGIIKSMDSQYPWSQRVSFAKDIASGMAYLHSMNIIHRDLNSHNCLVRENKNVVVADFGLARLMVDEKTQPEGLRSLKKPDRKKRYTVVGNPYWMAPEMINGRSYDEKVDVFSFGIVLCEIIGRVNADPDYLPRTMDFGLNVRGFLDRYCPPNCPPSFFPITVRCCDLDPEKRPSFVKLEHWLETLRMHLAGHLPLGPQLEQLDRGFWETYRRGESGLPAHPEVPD
Ribosomal protein S6 kinase alpha-5 (Homo sapiens), sequence (O75582 whole entry, looked up): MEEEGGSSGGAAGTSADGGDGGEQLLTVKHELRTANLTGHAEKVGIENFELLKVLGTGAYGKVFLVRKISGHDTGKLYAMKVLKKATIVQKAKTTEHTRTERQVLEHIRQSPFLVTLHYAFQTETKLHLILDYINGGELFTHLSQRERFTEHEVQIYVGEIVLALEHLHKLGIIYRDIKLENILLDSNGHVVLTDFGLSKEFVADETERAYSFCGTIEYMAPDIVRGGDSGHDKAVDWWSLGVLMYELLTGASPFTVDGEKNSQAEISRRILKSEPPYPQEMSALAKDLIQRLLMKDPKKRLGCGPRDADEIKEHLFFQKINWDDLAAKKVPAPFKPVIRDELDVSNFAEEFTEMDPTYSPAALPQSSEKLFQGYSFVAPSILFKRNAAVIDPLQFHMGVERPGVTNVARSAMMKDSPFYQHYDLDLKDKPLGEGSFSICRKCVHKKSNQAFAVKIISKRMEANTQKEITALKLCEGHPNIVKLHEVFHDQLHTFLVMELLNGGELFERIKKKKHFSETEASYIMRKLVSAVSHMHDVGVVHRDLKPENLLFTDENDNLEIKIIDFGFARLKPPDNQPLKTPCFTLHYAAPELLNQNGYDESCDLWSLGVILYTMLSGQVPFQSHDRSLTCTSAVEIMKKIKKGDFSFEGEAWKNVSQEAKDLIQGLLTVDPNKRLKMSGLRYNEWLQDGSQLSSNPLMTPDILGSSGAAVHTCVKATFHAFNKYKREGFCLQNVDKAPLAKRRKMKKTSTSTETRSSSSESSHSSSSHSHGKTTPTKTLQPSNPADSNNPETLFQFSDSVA
Mitogen-activated protein kinase 9 (Homo sapiens), sequence (P45984 whole entry, looked up): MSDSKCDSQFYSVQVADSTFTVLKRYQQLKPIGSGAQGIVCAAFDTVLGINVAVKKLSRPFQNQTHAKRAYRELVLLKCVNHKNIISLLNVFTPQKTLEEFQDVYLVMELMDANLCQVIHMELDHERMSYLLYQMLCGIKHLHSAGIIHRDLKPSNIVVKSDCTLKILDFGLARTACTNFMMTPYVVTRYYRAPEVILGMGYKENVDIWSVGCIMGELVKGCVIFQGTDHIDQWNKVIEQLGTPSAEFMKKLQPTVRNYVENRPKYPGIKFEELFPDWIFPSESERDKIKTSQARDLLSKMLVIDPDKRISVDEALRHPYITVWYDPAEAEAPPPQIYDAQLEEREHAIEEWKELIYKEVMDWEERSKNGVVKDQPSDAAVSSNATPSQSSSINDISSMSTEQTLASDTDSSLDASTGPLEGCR
Histamine H4 receptor (Homo sapiens), sequence (Q9H3N8 whole entry): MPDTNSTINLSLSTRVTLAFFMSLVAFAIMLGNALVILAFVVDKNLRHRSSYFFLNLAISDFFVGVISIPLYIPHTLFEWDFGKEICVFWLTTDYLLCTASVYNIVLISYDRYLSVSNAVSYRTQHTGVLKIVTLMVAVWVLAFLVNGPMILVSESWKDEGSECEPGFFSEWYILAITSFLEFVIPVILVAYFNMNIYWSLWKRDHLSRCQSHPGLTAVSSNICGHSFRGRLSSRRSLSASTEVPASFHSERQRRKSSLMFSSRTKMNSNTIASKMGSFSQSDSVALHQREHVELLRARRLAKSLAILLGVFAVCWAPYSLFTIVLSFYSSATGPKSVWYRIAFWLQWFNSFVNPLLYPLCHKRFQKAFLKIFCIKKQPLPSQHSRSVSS

Cc1ccc(-c2cnc([C@@]3(O)CC[C@H](C(=O)O)C(C)(C)C3)s2)cc1Nc1cccc(C(F)(F)F)n1 [MRL-SYKi-NC]
residual activity [1]: 100%
residual activity [2]: 90.7%
residual activity [3]: 78.7%
residual activity [4]: 100%
residual activity [5]: 82.3%
residual activity [6]: 94%
residual activity [7]: 92.5%
residual activity [8]: 100%
residual activity [9]: 100%
residual activity [10]: 100%
residual activity [11]: 80.3%
residual activity [12]: 100%
residual activity [13]: 97.7%
residual activity [14]: 69.7%
residual activity [15]: 73.8%
residual activity [16]: 45.3%
residual activity [17]: 100%
residual activity (LIM domain kinase 1): 100%
residual activity [18]: 75.8%
residual activity [19]: 97.9%
residual activity [20]: 81.2%
residual activity [21]: 89.3%
residual activity [22]: 100%
residual activity [23]: 100%
residual activity [24]: 100%
residual activity [25]: 87.9%
residual activity [26]: 20.2%
residual activity [27]: 69.9%
residual activity [28]: 100%
residual activity [29]: 100%
residual activity [30]: 91.5%
residual activity [31]: 100%
residual activity [32]: 100%
residual activity [33]: 93.6%
residual activity [34]: 86.8%
residual activity [35]: 89.9%
residual activity [36]: 100%
residual activity [37]: 100%
inhibition [38]: 16.5%
inhibition [39]: 8.33%
inhibition [40]: 8.06%
inhibition [41]: 1.6%
inhibition [42]: 23%
inhibition [43]: -6.54%
inhibition [44]: -2.32%

Cc1cc(Nc2nccc(C)n2)cc(-c2cnc([C@@]3(O)CC[C@H](C(=O)O)C(C)(C)C3)s2)c1 [MRL-SYKi]
residual activity [1]: 74.6%
residual activity [2]: 100%
residual activity [3]: 100%
residual activity [4]: 96.1%
residual activity [5]: 100%
residual activity [6]: 61.6%
residual activity [7]: 100%
residual activity [8]: 94.5%
residual activity [9]: 90.1%
residual activity [10]: 94%
residual activity [11]: 100%
residual activity [12]: 84.8%
residual activity [13]: 75.6%
residual activity [14]: 100%
residual activity [15]: 100%
residual activity [16]: 100%
residual activity [17]: 71.7%
residual activity (LIM domain kinase 1): 93.1%
residual activity [18]: 100%
residual activity [19]: 100%
residual activity [20]: 100%
residual activity [21]: 100%
residual activity [22]: 76.1%
residual activity [23]: 89%
residual activity [24]: 97.9%
residual activity [25]: 100%
residual activity [26]: 100%
residual activity [27]: 100%
residual activity [28]: 95.5%
residual activity [29]: 81.3%
residual activity [30]: 97%
residual activity [31]: 100%
residual activity [32]: 77.2%
residual activity [33]: 96.4%
residual activity [34]: 68.1%
residual activity [35]: 100%
residual activity [36]: 100%
residual activity [37]: 100%
inhibition [38]: 2.65%
inhibition [39]: 17.3%
inhibition [40]: 7.61%
inhibition [41]: 5.53%
inhibition [42]: 8.6%
inhibition [43]: 3.43%
inhibition [44]: -4.92%
